Experimental data reported in patent USRE41784E1, “Adhesive material” (Sony Corporation, priority 2000, dated 2010).
Where two headings read alike, the source gives them in different places.

Legend:
[1] = system: skin of rabbits; experiment: Draize test (skin irritation, PII value); details: for PII value: preferred acrylic/methacrylic acid esters; for PH value: starting material (component) of the adhesive materials
Description: (§1) The PII, or skin irritation, value is a skin toxicity index measured in accordance with the method defined by the Consumer Product Safety Commission of the USA (Draize Method; The Consumer Product Safely Commission of the USA, the Code of Federal Regulations, Title 16, Section 1500.41). A lower index corresponds to less pronounced skin irritation.
(§2) Hair was removed with the aid of an electric hair clipper from the lumbar regions of six healthy rabbits (body weight: 2.0-4.0 kg) to expose the skin over an area of about 10 cm^2. The skin on the right side of the vertebra was incised with a surgical knife over an area of 2.5 cm^2, creating a lesion. The skin on the left side of the vertebra was left intact, and pads obtained by applying 0.5 mL samples were affixed at two locations on the right and left of the vertebra. The pads were peeled off 24 and 72 hours following affixation, redness and swelling were visually observed, the results were graded using a five-point system (levels 0 to 4), a gross mean was obtained using the average values for each rabbit, and the gross mean value was termed the PII value.

[2] = system: mutant strain (his−) of Salmonella requiring histidine; details: starting material (component) of the adhesive materials
Description: The Ames test referred to herein is also known as a mutagenicity test, and is one of tests in which bacteria are used to screen chemical substances for carcinogenicity or mutagenicity. […] This mutation is the result of DNA damage, and carcinogenicity is believed to become more pronounced with increased ease of mutation. Consequently, an adhesive material having high biological safety must give a negative result of the Ames test.
This test was performed using direct reverse mutation of a mutant strain (his−) of Salmonella requiring histidine to a non-requiring strain (his+) under the action of a test substance. A specific test method involved preparing histidine-free media to which a metabolically active substance (S9) bad been added, and histidine-free media devoid of the metabolically active substance (S9). The test substance was admixed into these media, a strain (his−) requiring histidine was cultured, and the bacterial colony count of a medium containing the test substance was compared with the bacterial colony count of a medium devoid of the substance. If the first value was greater than the second, the test result was concluded to be positive, otherwise the result was concluded to be negative.

[3] = system: skin of rabbits; details: rabbit, in vivo
Description: as §1, §2

In the case of 1,3-butanediol methacrylate, the PII value [1] is reported as 0.0.
`C=C(C)C(=O)OCC(C)O` (centres unmarked) [2-hydroxypropyl methacrylate] was tested, and the PII value [1] was 0.0.
In the case of `C=C(C)C(=O)OCC(C)(C)COC(=O)C(=C)C` [Neopentyl glycol dimethacrylate], the PII value [1] is reported as 0.0, the PH value [1] is reported as 0.0 and the Mutagenicity [2] is reported as “negative”.
`C=CC(=O)OCCOc1ccccc1` [Phenoxyethyl acrylate] showed a PH value [1] of 1.5.
`C=C(C)C(=O)OCCO` [hydroxyethyl methacrylate] gave a PII value [1] of 0.0.
With Polypropylene glycol diacrylate the PH value [3] was 0.0, the PII value [3] was 0.0 and the Mutagenicity [2] was “negative”.
For ditrimethylol propane tetraacrylate, the PII value [1] was 0.0.
